Test results reported in patent US9642373B2, “Insecticidal compositions and methods of using same” (Woodstream Corporation, priority 2004, dated 2017).

Tested on: insects
Assay: Previous experiments, treatment of insects with 1% SLS alone (data not shown)
Format: in vivo
Settings: 300 second time period used in testing

CCCCCCCCCCCCOS(=O)(=O)[O-].[Na+] [1% SLS, sodium lauryl sulfate]
Kill time: > 300 s
